Measured values: patent US20100034878A1 (priority 2006, published 2010)
Read-outs that look alike come from different tables or passages of the source.

Columns and labels:
[1] = in vivo; cited from earlier work
[2] = in vivo; cited from earlier work; remark: listed apart in the source
CYP 2C9 = CYP 2C9 (Homo sapiens, UniProt P11712); conditions: cited from earlier work
[3] = daily vitamin K supplementation and INR stability in patients with very unstable INRs; type: in vivo; conditions: eight patients with very unstable INR on VKA
Procedure: The recommended dietary allowance for vitamin K is approximately 70 mcg. […] In addition, the administration of a VKA often requires that the patient take a half tablet on some days while other patients may require 1.5 or 2 tablets on other days. Consequently, the workable range of vitamin K per tablet is 10 mcg to 600 mcg, the preferred range is 25 mcg to 400 mcg, and the most preferred is 50 mcg to 200 mcg.
It was tested whether daily vitamin K supplementation would improve stability of the INR in patients who had very unstable INRs. […] The VKORC1 status itself was not assessed because the test was done prior to the VKORC1 gene being identified. INR values were collected for several months before and after daily vitamin K was started in eight patients with very unstable INR values.

Chain of CYP 2C9 (P11712 whole entry): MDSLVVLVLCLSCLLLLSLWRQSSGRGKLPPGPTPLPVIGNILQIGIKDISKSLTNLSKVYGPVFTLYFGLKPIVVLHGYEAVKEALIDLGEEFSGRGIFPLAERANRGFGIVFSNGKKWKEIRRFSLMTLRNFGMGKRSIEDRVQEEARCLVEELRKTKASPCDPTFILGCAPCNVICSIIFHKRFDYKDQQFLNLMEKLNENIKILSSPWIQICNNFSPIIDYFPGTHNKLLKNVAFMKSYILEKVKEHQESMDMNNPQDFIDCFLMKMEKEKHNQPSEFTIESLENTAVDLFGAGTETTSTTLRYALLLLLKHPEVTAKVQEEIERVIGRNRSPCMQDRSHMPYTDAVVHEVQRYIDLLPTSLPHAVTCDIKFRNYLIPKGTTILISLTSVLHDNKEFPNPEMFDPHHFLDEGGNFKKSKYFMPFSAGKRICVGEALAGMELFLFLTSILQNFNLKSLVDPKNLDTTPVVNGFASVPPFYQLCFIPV

Compound: CCC(c1ccccc1)c1c(O)c2ccccc2oc1=O (racemic) [Racemic phenprocoumon, phenprocoumon]
- fraction eliminated as the parent drug [1]: approximately 40%
- elimination half-life [2]: approximately 156 hrs

Compound: CC(=O)C[C@H](c1ccccc1)c1c(O)c2ccccc2oc1=O (single isomer, unassigned) [R-isomer of warfarin]
- metabolism by the 2C9 enzyme (CYP 2C9): not metabolized by the 2C9 enzyme

Compound: vitamin K
- fluctuation of INRs after starting daily vitamin K supplement [3]: fluctuated less
- percent of INRs in range after versus before starting daily vitamin K ([3]; daily vitamin K supplement, INR collected several months before and after): more than doubled

Compound: CC(=O)C[C@@H](c1ccccc1)c1c(O)c2ccccc2oc1=O (single isomer, unassigned) [S-isomer of warfarin]
- metabolism by the 2C9 enzyme (CYP 2C9; hepatic cytochrome P-450 2C9): almost totally metabolized by the 2C9 enzyme
